Experimental findings from patent US6479531B1, “Gastrin and cholecystokinin receptor ligands” (James Black Foundation Limited, priority 1998, dated 2002) are described below.

Experiment [1] addresses T1, CCKB receptor (Mus musculus, UniProt P56481).
T1 construct: The whole brains from male mice (CD1 22-25 g; Charles River) were removed; from tissue; host or cells: cerebral cortex membranes of male CD1 mice
T1 sequence (P56481 1-453): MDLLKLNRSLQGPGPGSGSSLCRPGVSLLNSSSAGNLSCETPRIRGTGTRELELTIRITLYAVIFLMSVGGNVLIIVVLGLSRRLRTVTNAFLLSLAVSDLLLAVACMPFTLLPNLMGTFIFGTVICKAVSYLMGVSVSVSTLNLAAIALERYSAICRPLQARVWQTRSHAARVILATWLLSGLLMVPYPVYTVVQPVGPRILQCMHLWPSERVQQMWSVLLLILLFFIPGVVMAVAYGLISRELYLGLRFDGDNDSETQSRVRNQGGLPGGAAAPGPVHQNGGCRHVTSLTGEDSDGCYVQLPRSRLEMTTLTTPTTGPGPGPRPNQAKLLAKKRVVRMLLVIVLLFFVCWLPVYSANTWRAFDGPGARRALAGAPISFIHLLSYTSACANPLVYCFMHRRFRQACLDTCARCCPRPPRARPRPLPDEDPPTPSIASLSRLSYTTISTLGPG
The experiment in a line: CCKB receptor radioligand binding assay in mouse cortical membranes. The note with it: [125I]-CCK8(S) 200 pM, 150 min at 21±3°, read-out: CCKB pKi (converted). The gist of the method: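 Bound radioactivity was gamma-counted after rapid GF/B filtration and cold 50 mM Tris-HCl (pH 7.4) washes. The tissue was cerebral cortex from male CD1 mice, prepared as twice-centrifuged membranes in pH 7.2 HEPES/NaCl/KCl/MgCl2/EDTA buffer with bacitracin at 20 mg/ml original wet weight.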

In experiment [2] the target is T2, gastrin receptor (Rattus norvegicus, UniProt P30553).
T2 construct: The stomach was excised and flushed with ca. 1 ml of unbuffered physiological saline solution; from tissue; host or cells: isolated whole stomach of immature rats (ca. 21 days old)
T2 sequence (P30553 1-452): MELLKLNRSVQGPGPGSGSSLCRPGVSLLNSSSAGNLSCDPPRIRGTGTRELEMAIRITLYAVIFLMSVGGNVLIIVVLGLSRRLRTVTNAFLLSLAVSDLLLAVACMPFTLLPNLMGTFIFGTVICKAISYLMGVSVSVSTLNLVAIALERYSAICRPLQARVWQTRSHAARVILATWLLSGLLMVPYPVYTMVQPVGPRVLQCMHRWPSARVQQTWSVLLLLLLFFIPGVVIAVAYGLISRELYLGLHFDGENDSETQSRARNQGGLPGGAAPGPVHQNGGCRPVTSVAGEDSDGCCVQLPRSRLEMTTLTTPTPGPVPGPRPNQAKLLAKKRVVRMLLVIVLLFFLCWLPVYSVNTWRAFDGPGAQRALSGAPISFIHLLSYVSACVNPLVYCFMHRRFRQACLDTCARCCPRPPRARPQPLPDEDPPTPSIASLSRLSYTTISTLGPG
The experiment in a line: gastrin antagonist activity in immature rat stomach assay (pentagastrin dose-response, acid secretion). The note with it: isolated immature rat stomach, cumulative pentagastrin dose-response curves, read-out: Gastrin pKb (converted). The gist of the method: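 Isolated, lumen-perfused stomach from immature rats (33-50 g, ca. 21 days) in a 37° organ bath with 3×10^−8 M 5-methylfurmethide, gassed 95% O2/5% CO2. Compound added serosally after 120 min stabilisation; cumulative pentagastrin dose-response curves begun 60 min later, acid secretion followed by perfusate pH.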

Take `Cc1ccccc1-c1nc(NC(=O)Nc2cccc(C(=O)O)c2)c(CCC23CC4CC(CC(C4)C2)C3)[nH]1` [Example 75, 3-{3-[5-(2-Adamantan-1-yl-ethyl)-2-o-tolyl-1H-imidazol-4-yl]-ureido}-benzoic Acid]: the Ki in experiment [1] is 200 nM. Besides, the Kb in experiment [2] was 263 nM.

Regarding `O=C(O)c1cccc(NC(=O)c2[nH]c(C3CC3)nc2CCC23CC4CC(CC(C4)C2)C3)c1` [Example 197, 3-{[5-(2-Adamantan-1-yl-ethyl)-2-cyclopropyl-1H-imidazole-4-carbonyl]-amino}-benzoic Acid], in experiment [1], the Ki was 776 nM. Further, the Kb in experiment [2] is 70.8 nM.

Consider `CC1(C)C2CC[C@]1(C)C(c1nc(C(=O)Nc3cccc(C(=O)O)c3)c(CCC34CC5CC(CC(C5)C3)C4)[nH]1)C2` (mixture of isomers) [Example 205, 3-{[5-(2-Adamantan-1-yl-ethyl)-2-[(1R,2RS)-1,7,7-trimethyl-bicyclo[2.2.1]hept-2-yl]-1H-imidazole-4-carbonyl]-amino}-benzoic Acid], for which, in experiment [1], the Ki was 47.9 nM. For the same compound, the Kb in experiment [2] was 8.32 nM.

Consider `O=C(O)c1cccc(NC(=O)c2nc(-c3ccc(F)cc3F)[nH]c2CCC23CC4CC(CC(C4)C2)C3)c1` [Example 60, 3-{[5-(2-Adamantan-1-yl-ethyl)-2-(2,4-difluoro-phenyl)-1H-imidazole-4-carbonyl]-amino}-benzoic Acid], for which, in experiment [1], the Ki is 141 nM. Besides, the Kb in experiment [2] is 7.76 nM.

For `O=C(O)c1cccc(NC(=O)c2sc(C3CCCCC3)nc2CCC23CC4CC(CC(C4)C2)C3)c1` [Example 122, 3-{[4-(2-Adamantan-1-yl-ethyl)-2-cyclohexyl-thiazole-5-carbonyl]-amino}-benzoic Acid], in experiment [1], the Ki is 1020 nM. For the same compound, the Kb in experiment [2] is 3020 nM.

Take `CCCC(CCC)c1nc(C(=O)Nc2cccc(C(=O)O)c2)c(CCC23CC4CC(CC(C4)C2)C3)[nH]1` [Example 125, 3-{[5-(2-Adamantan-1-yl-ethyl)-2-(1-propyl-butyl)-1H-imidazole-4-carbonyl]-amino}-benzoic Acid]: in experiment [1], the Ki is 105 nM. Besides, the Kb in experiment [2] is 2.29 nM.

As for `Cc1ccccc1-c1nc(CCC23CC4CC(CC(C4)C2)C3)c(C(=O)Nc2ccc(N(C)C)c(C(=O)O)c2)[nH]1` [Example 242, 5-{[5-(2-Adamantan-1-yl-ethyl)-2-o-tolyl-1H-imidazole-4-carbonyl]-amino}-2-dimethylamino-benzoic Acid], in experiment [1], the Ki was 324 nM. Moreover, the Kb in experiment [2] was 741 nM.

`O=C(O)c1cccc(NC(=O)c2nc(-c3ccccc3C(F)(F)F)[nH]c2CCC23CC4CC(CC(C4)C2)C3)c1` [Example 56, 3-{[5-(2-Adamantan-1-yl-ethyl)-2-(2-trifluoromethyl-phenyl)-1H-imidazole-4-carbonyl]-amino}-benzoic Acid]: in experiment [1], the Ki is 240 nM. In addition, the Kb in experiment [2] was 18.2 nM.

As for `O=C(O)c1cccc(NC(=O)c2nc(C3CCCCC3)[nH]c2CCCC23CC4CC(CC(C4)C2)C3)c1` [Example 171, 3-{[5-(3-Adamantan-1-yl-propyl)-2-cyclohexyl-1H-imidazole-4-carbonyl]-amino}-benzoic Acid], in experiment [1], the Ki is 141 nM. For the same compound, in experiment [2], the Kb is 38.9 nM.

For the compound `O=C(O)c1cccc(NC(=O)c2nc(-c3ccccc3C(F)(F)F)[nH]c2CCC2CCCCCC2)c1` [Example 40, 3-{[5-(2-Cycloheptyl-ethyl)-2-(2-trifluoromethyl-phenyl)-1H-imidazole-4-carbonyl]-amino}-benzoic Acid], in experiment [1], the Ki is 933 nM. Besides, the Kb in experiment [2] was 204 nM.

On to `Cc1ccc(NC(=O)c2nc(C3(C)CCCCC3)[nH]c2COC23CC4CC(CC(C4)C2)C3)cc1C(=O)O` [Example 220, 5-([5-(Adamantan-1-yloxymethyl)-2-(1-methyl-cyclohexyl)-1H-imidazole-4-carbonyl]-amino}-2-methyl-benzoic Acid], for which the Ki in experiment [1] was 2.95 nM. The Kb in experiment [2] was 0.468 nM.

As to `COc1ccccc1-c1nc(C(=O)Nc2cccc(C(=O)O)c2)c(CCC23CC4CC(CC(C4)C2)C3)[nH]1` [Example 58, 3-{[5-(2-Adamantan-1-yl-ethyl)-2-(2-methoxy-phenyl)-1H-imidazole-4-carbonyl]-amino}-benzoic Acid], the Ki in experiment [1] was 794 nM. Further, the Kb in experiment [2] is 22.9 nM.

As to `CN(C)c1cccc(-c2nc(C(=O)Nc3cccc(C(=O)O)c3)c(CCC34CC5CC(CC(C5)C3)C4)[nH]2)c1` [Example 71, 3-{[5-(2-Adamantan-1-yl-ethyl)-2-(3-dimethylamino-phenyl)-1H-imidazole-4-carbonyl]-amino}-benzoic Acid], the Ki in experiment [1] was 186 nM. Further, the Kb in experiment [2] was 794 nM.

On to `O=C(O)c1cccc(NC(=O)c2nc(C3CCCCC3)[nH]c2CCC2CCCCC2)c1` [Example 168, 3-{[2-Cyclohexyl-5-(2-cyclohexyl-ethyl)-1H-imidazole-4-carbonyl]-amino}-benzoic Acid], for which the Ki in experiment [1] is 245 nM. Also, in experiment [2], the Kb was 64.6 nM.

For `Cc1ccccc1-c1nc(C(=O)Nc2ccc(F)c(C(=O)O)c2)c(CCC23CC4CC(CC(C4)C2)C3)[nH]1` [Example 105, 5-{[5-(2-Adamantan-1-yl-ethyl)-2-o-tolyl-1H-imidazole-4-carbonyl]-amino}-2-fluoro-benzoic Acid], in experiment [1], the Ki is 46.8 nM. In addition, the Kb in experiment [2] was 87.1 nM.

Consider `CC(Cc1[nH]c(C2CCCCC2)nc1C(=O)Nc1cccc(C(=O)O)c1)C12CC3CC(CC(C3)C1)C2` (racemic) [Example 132, (±)-3-{[5-(2-Adamantan-1-yl-propyl)-2-cyclohexyl-1H-imidazole-4-carbonyl]-amino}-benzoic Acid], for which the Ki in experiment [1] was 42.7 nM. Besides, in experiment [2], the Kb is 8.13 nM.

As for `Cc1ccc(NC(=O)c2nc(-c3ccc(F)cc3F)[nH]c2CCC23CC4CC(CC(C4)C2)C3)cc1C(=O)O` [Example 152, 5-{[5-(2-Adamantan-1-yl-ethyl)-2-(2,4-difluoro-phenyl)-1H-imidazole-4-carbonyl]-amino}-2-methyl-benzoic Acid], in experiment [1], the Ki is 10.5 nM. Also, the Kb in experiment [2] is 11.5 nM.

Consider `O=C(O)c1cccc(NC(=O)c2nc(C3CC4C=CC3C4)[nH]c2CCC23CC4CC(CC(C4)C2)C3)c1` (racemic) [Example 116, (±)-endo-3-{[5-(2-Adamantan-1-yl-ethyl)-2-bicyclo[2.2.1]hept-5-ene-2-yl-1H-imidazole-4-carbonyl]-amino}-benzoic Acid], for which the Ki in experiment [1] was 13.5 nM. Moreover, the Kb in experiment [2] was 2.14 nM.

On to `O=C(O)c1cccc(NC(=O)c2nc(-c3ccccc3F)[nH]c2CCC23CC4CC(CC(C4)C2)C3)c1` [Example 50, 3-{[5-(2-Adamantan-1-yl-ethyl)-2-(2-fluoro-phenyl)-1H-imidazole-4-carbonyl]-amino}-benzoic Acid], for which the Ki in experiment [1] was 331 nM. For the same compound, the Kb in experiment [2] was 26.3 nM.

For `Cc1ccccc1-c1nc(C(=O)Nc2cccc(C(=O)O)c2)c(CCC2CCCCC2)[nH]1` [Example 89, 3-{[5-(2-Cyclohexyl-ethyl)-2-o-tolyl-1H-imidazole-4-carbonyl]-amino}-benzoic Acid], the Ki in experiment [1] was 676 nM. In addition, the Kb in experiment [2] is 20 nM.

Consider `CC12CC3CC(C)(C1)CC(CCc1[nH]c(C4CCCCC4)nc1C(=O)Nc1cccc(C(=O)O)c1)(C3)C2` [Example 174, 3-({2-Cyclohexyl-5-[2-(3,5-dimethyl-adamantan-1-yl)-ethyl]-1H-imidazole-4-carbonyl}-amino)-benzoic Acid], for which the Ki in experiment [1] was 251 nM. Also, the Kb in experiment [2] is 204 nM.

Turning to `O=C(O)c1cccc(NC(=O)c2nc(C3CC4C=CC3C4)[nH]c2CCC23CC4CC(CC(C4)C2)C3)c1` (racemic) [Example 117, (±)-exo-3-{[5-(2-Adamantan-1-yl-ethyl)-2-bicyclo[2.2.1]hept-5-ene-2-yl-1H-imidazole-4-carbonyl]-amino}-benzoic Acid], in experiment [1], the Ki was 36.3 nM. For the same compound, the Kb in experiment [2] was 3.63 nM.

As for `O=C(O)c1cc(NC(=O)c2nc(C3CCCCC3)[nH]c2CCC23CC4CC(CC(C4)C2)C3)cc(C(=O)O)c1` [Example 129, 5-{[5-(2-Adamantan-1-yl-ethyl)-2-cyclohexyl-1H-imidazole-4-carbonyl]-amino}-isophthalic Acid], the Ki in experiment [1] was 219 nM. For the same compound, in experiment [2], the Kb is 380 nM.
